# According to ChEMBL document CHEMBL1201862, “PubChem BioAssay data set” (2004):
#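 Dose response: 5 concentrations. Exposure: 48 h. Format: 96-well plates. Endpoint: linear interpolation; highest concentration if not reached. The concentration for 50% growth inhibition is given as GI50.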 Activity calls are given as the source filed them. Cut-off read from the data, not from the text of the source: active = GI50 up to about 1.1 µM and inactive = higher.
# How the values were obtained:
# Assay in all cases: DTP human tumour cell line panel, 48 h
# [1] = tested on: KM-20L2
# [2] = tested on: RXF 631
# [3] = tested on: HOP-18
# [4] = tested on: DMS-273
# [5] = tested on: DMS-114
# [6] = tested on: SNB-78
# [7] = tested on: M19-MEL
# [8] = tested on: LXFL 529
# [9] = tested on: XF498
SMILES,GI50 [1],GI50 [2],GI50 [3],GI50 [4],GI50 [5],GI50 [6],GI50 [7],GI50 [8],GI50 [9]
N#CCCN(CCC#N)c1ccc(/C=C(/NC(=O)c2cc([N+](=O)[O-])ccc2Cl)C(=O)N=[N+]=[N-])cc1,> 100 µM (inactive),> 100 µM (inactive),> 100 µM (inactive),> 100 µM (inactive),> 100 µM (inactive),> 100 µM (inactive),> 100 µM (inactive),> 100 µM (inactive),–
CCCCCCCCCC1CC(=O)OC23CCCC(=O)C12O3 (stereo not drawn),> 100 µM (inactive),–,62.5 µM (inactive),> 100 µM (inactive),71.6 µM (inactive),60.8 µM (inactive),> 100 µM (inactive),> 100 µM (inactive),> 100 µM (inactive)
COc1ccc2c(c1)C1C(CO2)C(c2ccccc2)=NN1c1ccccc1 (stereo not drawn),> 100 µM (inactive),> 100 µM (inactive),> 100 µM (inactive),> 100 µM (inactive),> 100 µM (inactive),> 100 µM (inactive),> 100 µM (inactive),> 100 µM (inactive),> 100 µM (inactive)
O=S(=O)(c1ccccc1)C1CN2OC1(S(=O)(=O)c1ccccc1)CC21CCCCC1 (stereo not drawn),> 100 µM (inactive),> 100 µM (inactive),–,82.6 µM (inactive),> 100 µM (inactive),–,> 100 µM (inactive),> 100 µM (inactive),32.3 µM (inactive)
COc1ccc(/C=C/C(=O)c2sc(-n3nc(-c4ccccc4)cc3-c3ccccc3)nc2C)cc1OC,20.9 µM (inactive),24.5 µM (inactive),> 100 µM (inactive),36.6 µM (inactive),28.1 µM (inactive),–,42.4 µM (inactive),30.3 µM (inactive),49.3 µM (inactive)
c1ccc(CN(Cn2cccn2)Cn2cccn2)nc1,> 100 µM (inactive),> 100 µM (inactive),–,61.7 µM (inactive),78.7 µM (inactive),> 100 µM (inactive),> 100 µM (inactive),> 100 µM (inactive),> 100 µM (inactive)
Nc1ccccc1C(=O)C(Br)C(Br)c1ccc2c(c1)OCO2 (stereo not drawn),17.2 µM (inactive),–,16.7 µM (inactive),15.1 µM (inactive),18.2 µM (inactive),24.3 µM (inactive),17.8 µM (inactive),16.7 µM (inactive),16.7 µM (inactive)
COc1cc(/C=C(\C#N)C(=O)c2ccccc2)ccc1O,> 100 µM (inactive),–,–,–,–,> 100 µM (inactive),> 100 µM (inactive),> 100 µM (inactive),> 100 µM (inactive)
O=C1OC(c2ccc(Cl)c3ccccc23)c2ccccc21 (stereo not drawn),64.3 µM (inactive),> 100 µM (inactive),> 100 µM (inactive),–,71.3 µM (inactive),> 100 µM (inactive),> 100 µM (inactive),–,> 100 µM (inactive)
COc1cc2c(cc1OC)C(CC(=O)NN=C(C)C)NCC2 (stereo not drawn),> 100 µM (inactive),–,> 100 µM (inactive),> 100 µM (inactive),> 100 µM (inactive),> 100 µM (inactive),> 100 µM (inactive),> 100 µM (inactive),96.6 µM (inactive)
O=C1C2C(C(=O)N1c1ccccc1)C1(Br)c3ccccc3C2(Br)C2C(=O)N(c3ccccc3)C(=O)C21 (stereo not drawn),24.5 µM (inactive),> 100 µM (inactive),18.1 µM (inactive),11.7 µM (inactive),> 31.6 µM (inactive),12.5 µM (inactive),> 31.6 µM (inactive),7.62 µM (inactive),29.2 µM (inactive)
O=C(Nc1cccc([N+](=O)[O-])c1)/C(=N\NC(=O)c1ccncc1)c1nc2ccc([N+](=O)[O-])cc2nc1O,–,–,–,–,13.9 µM (inactive),> 100 µM (inactive),–,35.6 µM (inactive),–
COC(=O)C1CC/C(=N/C2c3ccccc3-c3ccccc32)N1 (stereo not drawn),> 100 µM (inactive),> 100 µM (inactive),> 100 µM (inactive),> 100 µM (inactive),43.8 µM (inactive),> 100 µM (inactive),> 100 µM (inactive),> 100 µM (inactive),> 100 µM (inactive)
CC(C)(C)C1CCC(CI)(N=[N+]=[N-])CC1 (stereo not drawn),> 100 µM (inactive),–,> 100 µM (inactive),> 100 µM (inactive),> 100 µM (inactive),> 100 µM (inactive),99.1 µM (inactive),> 100 µM (inactive),42.5 µM (inactive)
O=C1c2c(O)cccc2C(C(=O)CCCC(=O)C2c3cccc(O)c3C(=O)c3c(O)cccc32)c2cccc(O)c21,1.19 µM (inactive),0.578 µM (active),0.378 µM (active),0.437 µM (active),0.116 µM (active),0.213 µM (active),0.151 µM (active),0.139 µM (active),0.0752 µM (active)
N#CC(C(=O)/C(=N\NC(N)=O)C(C#N)c1ccccc1)c1ccccc1 (stereo not drawn),> 100 µM (inactive),> 100 µM (inactive),–,> 100 µM (inactive),–,> 100 µM (inactive),–,> 100 µM (inactive),–
N#Cc1ccc2cc3c(cc2c1)OCO3,> 100 µM (inactive),> 100 µM (inactive),–,95.5 µM (inactive),> 100 µM (inactive),> 100 µM (inactive),> 100 µM (inactive),> 100 µM (inactive),–
COc1ccccc1NC(=O)CC(=O)n1nc(C)c(/N=N/c2ccccc2F)c1C,> 100 µM (inactive),–,> 100 µM (inactive),> 100 µM (inactive),> 100 µM (inactive),17.3 µM (inactive),> 100 µM (inactive),> 100 µM (inactive),40 µM (inactive)
COc1cc2cc3c4c(cc(OC)c(OC)c4c2cc1OC)CCN3C(=O)OCCBr,43.4 µM (inactive),–,–,50.2 µM (inactive),–,> 100 µM (inactive),81.8 µM (inactive),–,> 100 µM (inactive)
CNC(N)NC,> 100 µM (inactive),–,> 100 µM (inactive),> 100 µM (inactive),> 100 µM (inactive),> 100 µM (inactive),> 100 µM (inactive),> 100 µM (inactive),> 100 µM (inactive)
C/C1=N\[N-]C(=O)c2ccccc2C(=O)N/N=C(\C)c2cccc1n2.O=[N+]([O-])[O-].[Zn+2],> 100 µM (inactive),–,> 100 µM (inactive),–,> 100 µM (inactive),> 100 µM (inactive),–,44.2 µM (inactive),–
CSc1ccc2c(cc1=O)C(NC(=O)c1ccccc1)CCc1cc(O)c(O)c(O)c1-2 (stereo not drawn),1.81 µM (inactive),–,> 100 µM (inactive),26.9 µM (inactive),26.2 µM (inactive),6.79 µM (inactive),4.94 µM (inactive),23.4 µM (inactive),–
COc1cc2c(cc1OC)C(O)[C@H](Br)C(C)(C)O2 (stereo partly drawn),> 100 µM (inactive),–,> 100 µM (inactive),> 100 µM (inactive),> 100 µM (inactive),–,> 100 µM (inactive),> 100 µM (inactive),> 100 µM (inactive)
CCN(CC)CCNc1ccc2nnn3c4ccc(C)cc4c(=O)c1c23,6.32 µM (inactive),5.28 µM (inactive),–,–,9.12 µM (inactive),10.9 µM (inactive),14.6 µM (inactive),12 µM (inactive),–
NC(=O)c1cccc([N+](=O)[O-])c1,> 100 µM (inactive),–,–,> 100 µM (inactive),> 100 µM (inactive),> 100 µM (inactive),> 100 µM (inactive),> 100 µM (inactive),> 100 µM (inactive)
Cn1cnnc1Sc1c([N+](=O)[O-])ncn1C,–,> 100 µM (inactive),13.5 µM (inactive),> 100 µM (inactive),> 100 µM (inactive),45.9 µM (inactive),–,20 µM (inactive),> 100 µM (inactive)
CC1=C2C(=O)C(C)(C)C=C2C(=O)[C@](C)(O)C12CC2 [DEHYDROILLUDIN M],0.527 µM (active),–,> 1 µM (active),0.282 µM (active),–,0.522 µM (active),> 0.953 µM (active),0.698 µM (active),0.664 µM (active)
